Measurements reported in US11078496B2, “System for F-box hormone receptor regulated protein expression in mammalian cells” (ICAHN SCHOOL OF MEDICINE AT MOUNT SINAI, priority 2016, dated 2021).

Biological target: T1, AID^47-NANOG (A-NANOG) (UniProt P93830+Q7XVM8)
T1 construct: (encoding NP_001052659); 47-amino acid segment that corresponds to amino acids 63-109 of A. thaliana IAA17; expressed in transfected cells; host or cells: CCE mESCs (lentiviral pRAIDRS)
Assay: Auxin-dependent depletion of A-NANOG in mESCs (western blot)
Assay type: cell-based, mouse
Protocol: FIGS. 3A-3D illustrate an auxin-degradable NANOG rescue system in mESCs. CCE mESCs were infected with pRAIDRS AID^47-NANOG (A-NANOG) or GFP-AID^47 (“GFP-A”) and selected clones with ESC morphology were analyzed for the effect of auxin (“IAA”) treatment. FIG. 3A is a western blot analysis depicting endogenous NANOG (*) and A-NANOG (**) in parental mESCs, and in the indicated clones. β-Actin serves as a loading control. Experiment was repeated three times and a representative blot is presented. FIG. 3B are images of mESC clones plated at low density, grown in the presence of ethanol (“Con”) or auxin (“IAA”) for 3-4 days and assayed for AP activity. GFP-A mESCs reached the desired confluency a day earlier and therefore the images were taken on different days. FIG. 3C are bright-field images showing representative morphology of A-NANOG mESCs following 3 days of ethanol (“Con”) or auxin (“IAA”) treatment (upper part) and merged bright-field and GFP fluorescence images of ethanol or auxin-treated GFP-A mESCs (lower part). Scale bars, 100 μm. […] All cells were subjected to the same concentration of ethanol for the duration of experiment. Quantitative real-time PCR analysis was performed for selected self-renewal and differentiation markers, and normalized expression levels are represented as a heatmap. […] See also FIGS. 4A-4F and FIG. 15. […]

T1 sequence (Q7XVM8 whole entry, the tested form may be a part): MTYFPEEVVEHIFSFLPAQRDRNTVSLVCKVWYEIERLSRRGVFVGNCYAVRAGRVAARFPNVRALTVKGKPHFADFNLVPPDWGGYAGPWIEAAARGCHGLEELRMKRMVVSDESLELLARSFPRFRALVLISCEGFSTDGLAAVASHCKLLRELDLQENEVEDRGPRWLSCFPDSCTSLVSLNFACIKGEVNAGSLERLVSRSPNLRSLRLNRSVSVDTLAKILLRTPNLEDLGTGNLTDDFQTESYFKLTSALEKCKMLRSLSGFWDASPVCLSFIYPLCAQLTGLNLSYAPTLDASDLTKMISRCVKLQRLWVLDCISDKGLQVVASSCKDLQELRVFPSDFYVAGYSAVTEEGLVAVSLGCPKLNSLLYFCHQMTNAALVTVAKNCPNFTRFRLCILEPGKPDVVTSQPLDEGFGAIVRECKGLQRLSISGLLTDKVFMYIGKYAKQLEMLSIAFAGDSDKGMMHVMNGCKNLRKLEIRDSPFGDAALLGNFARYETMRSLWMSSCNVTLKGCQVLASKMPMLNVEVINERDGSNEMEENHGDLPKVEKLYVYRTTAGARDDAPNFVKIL
T1 sequence (P93830 63-109): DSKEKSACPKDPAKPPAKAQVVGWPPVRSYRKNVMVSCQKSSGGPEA

O=C(O)Cc1c[nH]c2ccccc12 [auxin, indole-3-acetic acid]
depletion of A-NANOG (A-NANOG #2 mESCs, 50 μM auxin, 30 minutes, western blot): complete depletion
time for >95% degradation of NANOG (pRAIDRS system, auxin-dependent protein depletion): 20 to 30 min
